# Where a name gives a salt, the structure may show the parent alone.
# Assays:
# [1] = Hygroscopicity by dynamic moisture absorption (DVS); type: physicochemical; settings: 25° C./80RH
# Method: Hygroscopicity was tested by dynamic moisture absorption (DVS) instrument. […] (Refer to the 2015 edition of the Chinese Pharmacopoeia (Guiding Principles for Drug Hygroscopicity Test)). • (2) Stability study of the crystal form A of the hydrochloride of the compound of formula I-1: […]
# [2] = Stability study of crystal form A (HPLC purity, XRPD crystal form); type: physicochemical; settings: initial purity 100
# Method: About 10 mg of the crystal form A of the hydrochloride of the compound of formula I-1 was weighed and added into an HPLC vial, the bottle was sealed with a parafilm, 10 small holes were pierced in the film, and the vial was placed at 25° C./60% RH or 40° C./75% RH environment for 4 weeks, sampled in the first and fourth weeks respectively. Purity (using HPLC analysis) and crystal form (using X-ray powder diffraction analysis) of the samples were investigated.
# [3] = system: SNL model in rat; test: SNL model in rat, mechanical hyperalgesia test; type: in vivo, SD rats; settings: 10 mg/kg intragastric, 1 hour after administration, hydrochloride used; control group 3.967 ± 0.775
# Method: SD rats were taken for surgery, male, SPF grade, mass 150 g-180 g. The surgical procedure was performed aseptically. The animals were anesthetized with sodium pentobarbital (50 mg/kg, intraperitoneal injection). The surgical area of the waist of animals was shaved, and the skin was disinfected three times with iodophor and 70% ethanol. Start the operation after the skin was dry. A longitudinal incision was made in the posterior part of the sacral bone of the animal's waist with a scalpel to expose the left paravertebral muscles, and the muscle tissue was separated with a distractor to expose the vertebra. The left spinal nerves L5 and L6 were separated, ligated with 6-0 silk thread, and the wounds were sutured. After the surgery, the animals were placed on an electric blanket and injected subcutaneously with 5 mL normal saline to prevent dehydration. When the animal was completely awake (free to move), put the animal back into the cage.
# After the surgery, the animals were adapted in the experimental environment for 15 minutes/day for 3 days.
# After administration, mechanical hyperalgesia test was performed. The rats were placed individually in a plexiglas box with a grid at the bottom of the box to ensure that the feet of the rats can be tested. Rats would adapt for 15 minutes before the test. […] The rapid paw withdrawal of the animal during the test was recorded as a pain response. The paw withdrawal of the animal when the test fiber left the animal's skin was also recorded as a pain response. If the animal moved or walked, it will not be recorded as a pain response, the test should be repeated. […]
# Mechanical hyperalgesia was expressed as the paw withdrawal threshold (PWT) in the behavioral test of rats, which was calculated according to the following equation: 50% response threshold (g)=(10(^Xf+kδ))/10,000 • Xf=the final test fiber value used in the test • K=table value • δ=Average difference
# Data were collected using Excel software and analyzed using Prism 6.01 (Graph pad software, Inc.) software.
# [4] = Neurocytotoxicity (CCK-8 cytotoxicity test); type: cell-based; settings: human, SH-SY5Y cells
# Method: (§1) HepG-2 and SH-SY5Y cells were prepared and placed in 10 cm dish and incubated at 37° C., 5% CO2 in a cell incubator; the cells were digested with trypsinize, resuspended and then counted. Based on a system of 100 μl/well, 8000 cells were transferred to a 96-well plate. The cells were incubated in a 37° C., 5% CO2 cell incubator for 24 hours; a gradient concentration system of compound I-1 (prepared in Example 2) was prepared, 2 times diluted, the system was 100 μl/well. The supernatant in the 96-well plate cell culture system on the first day was removed, and a fresh prepared drug concentration system was added to the corresponding culture plate wells culturing cells (set up duplicate wells). […] After completion of the culture, the supernatant was removed from the cell culture system of the 96-well plate, 100 μl of detection solution (medium containing 10% CCK-8) was add to each well, and incubated in a cell incubator at 37° C. and 5% CO2 for 1 hour, then taken it out and measured the absorbance at 450 nm with a microplate reader. Data were processed, cytotoxicity was calculated, and IC50 was calculated by GraphPad Prism. […]
# (§2) A (dosing): absorbance of the well having cells, CCK-8 solution and drug solution
# (§3) A (blank): absorbance of the well having medium and CCK-8 solution, without cells.
# (§4) A (0 dosing): absorbance of the well having cells and CCK-8 solution, without drug solution […]
# [5] = system: acetic acid writhing pain model in mice; test: Acetic acid writhing pain model in mice; type: in vivo, ICR mice; settings: acetic acid 1 hour after administration, normal saline group 49 times
# Method: ICR mice, male, 22-25 g, were fasted for food 2 h before administration, but can have water. All ICR mice were weighed and randomly grouped with the number of animals>10 per group. […] The mice were administered via intragastric administration according to the weight of mice. 1.5% acetic acid solution (0.1 ml/10 g) was intraperitoneally injected at 1 hour after administration, and the number of times of visceral pain in each group within 30 minutes was observed, the mice were counted once when the abdomen was concave, the trunk and hind legs were extended and the hips were elevated, and the number of times of these phenomena occurred within 30 min was finally counted.
# [6] = system: HepG2 cells; test: Hepatocyte toxicity (CCK-8 cytotoxicity test); type: cell-based; settings: Homo sapiens, 72 hours, read-out: hepatotoxicity (IC50)
# Method: as §1, §2, §3, §4
# [7] = system: hot plate induced pain model in rat; test: Hot plate induced pain model in rat; type: in vivo, Sprague-Dawley rats; settings: 30 mg/kg intraperitoneal, hydrochloride used
# Method: Male, mature and unmated healthy Sprague-Dawley rats were selected, and the temperature of the cold/hot plate (product model: PE34, US IITC) was adjusted to a constant temperature of 53±0.1° C., and rats with painful response such as foot licking, foot shaking or slight jumping within 5-10 s were screened (abandoned those who evaded and jumped). […] The tested compound was freshly formulated on the day of administration. A 0.9% NaCl normal saline solution was prepared as a vehicle, an appropriate amount of the test compound was added to the required volume of normal saline, and the mixture was fully suspended to prepare the drug at a concentration of 1 mg/ml. […] The latency of thermal pain was measured at 0.5 h, 1 h and 2 h after drug administration. To avoid scalding the animals on the hot plate, the maximum latency was set to 30 s. The analgesic effect of each compound was evaluated using the maximum possible effect (MPE), i.e. MPE %=[(Post drug latency-baseline latency)/(30−baseline latency)]×100. Statistics of MPE % at different time points.
# [8] = system: formalin pain model in mice; test: Formalin pain model in mice; type: in vivo, C57BL/6 mice; settings: for licking time (s) in phase II (10-60 min): hydrochloride used, mice, blank Vehicle 349.55 ± 43.09
# Text: 150 C57BL/6 mice (male, 9 weeks) were randomly divided into 15 groups with 10 mice for each group, and were used for the analgesic activity test of 3 compounds in the formalin pain model in mice: the compound I-1 group (compound I-1 prepared in Example 2, its hydrochloride was used in the experiment), the S-duloxetine group (its hydrochloride was used in the experiment) and the compound C1 group (compound C1 prepared in Comparative Example 1, its hydrochloride was used in the experiment), respectively. Before the start of the experiment, the mice were allowed to adapt to the experimental environment for 72 hours, during which there was no need to fast for food or water. The tested drugs were administrated by intraperitoneal injection, and the doses were as follows: • The compound I-1 group: blank Vehicle (blank normal saline control), 0.1 mg/kg, 0.5 mg/kg, 1 mg/kg, 5 mg/kg and 10 mg/kg; • The S-duloxetine group: blank Vehicle (blank normal saline control), 1 mg/kg, 5 mg/kg, 10 mg/kg and 20 mg/kg; • The Compound C1 group: blank Vehicle (blank normal saline control), 0.1 mg/kg, 0.5 mg/kg, 1 mg/kg, 5 mg/kg and 10 mg/kg.
# After the administration, the mice were placed in a transparent, ventilated plexiglass cylinder, and 1 hour later, 20 μl of 4% formalin solution was injected into the left hind foot plantar of each group of mice with a micro-injector, and foot pain response in mice were recorded in real time with a miniature camera. The length of time of licking the left foot was used as an indicator of pain response, the licking time were observed and recorded during two periods of 0-10 min (phase I) and 10-60 min (phase II) respectively, for statistical analysis, and the half effective dose (ED50) of the 3 compounds were calculated: ED50 refers to the drug dose that reduces the licking time by half compared with the blank control group. The smaller the ED50 value is, the lower the effective analgesic dose of the compound is and the better its analgesic effect is.
"weight change (hygroscopicity, DVS) [1]","Purity (area %) ([2]; 25° C./60% RH, 1 week)","Purity (area %) ([2]; 25° C./60% RH, 4 weeks)","Purity (area %) ([2]; 40° C./75% RH, 1 week)","Purity (area %) ([2]; 40° C./75% RH, 4 weeks)",Compound,PWT [3],IC50 at 72 h [4],number of visceral pains (writhing reactions) within 30 min ([5]; 10 mg/kg intragastric),number of visceral pains (writhing reactions) within 30 min ([5]; 20 mg/kg intragastric),IC50 [6],MPE % ([7]; 0.5 h),MPE % ([7]; 1 h),MPE % ([7]; 2 h),licking time (s) in phase II (10-60 min) ([8]; 1 mg/kg intraperitoneal),licking time (s) in phase II (10-60 min) ([8]; 5 mg/kg intraperitoneal),licking time (s) in phase II (10-60 min) ([8]; 10 mg/kg intraperitoneal),licking time (s) in phase II (10-60 min) ([8]; 20 mg/kg intraperitoneal),"ED50 ([8]; Mus musculus, ip, intraperitoneal, phase II (10-60 min), dose that halves licking time vs blank control, read-out: analgesic potency ED50 in phase II pain)"
less than 0.2%,100 area %,100 area %,100 area %,100 area %,CNCC[C@@H](Oc1cccc2ccoc12)c1cccs1 [Crystal form A of the hydrochloride],–,–,–,–,–,–,–,–,–,–,–,–,–
–,–,–,–,–,CNCC[C@H](Oc1cccc2ccccc12)c1cccs1 [S-duloxetine],6.519 ± 2.226 g,28.6 µM,27 times,21 times,33.3 µM,5.75 ± 5.74%,7.44 ± 5.12%,13.53 ± 4.99%,259.97 ± 64.44 s,230.49 ± 41.31 s,162.83 ± 36.27 s,72.27 ± 17.29 s,8 mg/kg
